Results: patent publication US10562900B2 (Shanghai Haihe Pharmaceutical Co., Ltd., priority 2014, dated 2020)

Assays:
[1] = target: FGFR1 (Homo sapiens (Human), UniProt P11362); assay: FGFR1 kinase activity at the molecular level (ELISA, Poly(Glu,Tyr) 4:1 substrate); format: biochemical; conditions: kinase domain recombinant protein, 5 μM ATP
Description: (§1) 100 μL/well of 2 mg/mL OPD developing solution (diluted with 0.1M citric acid-sodium citrate buffer containing 0.03% H2O2 (pH=5.4)), and reacted in dark for 1-10 minutes at 25° C.

[2] = target: FGFR2 (Homo sapiens (Human), UniProt P21802); assay: FGFR2 kinase activity at the molecular level (ELISA, Poly(Glu,Tyr) 4:1 substrate); format: biochemical; conditions: kinase domain recombinant protein, 5 μM ATP
FGFR2, sequence (P21802 481-770): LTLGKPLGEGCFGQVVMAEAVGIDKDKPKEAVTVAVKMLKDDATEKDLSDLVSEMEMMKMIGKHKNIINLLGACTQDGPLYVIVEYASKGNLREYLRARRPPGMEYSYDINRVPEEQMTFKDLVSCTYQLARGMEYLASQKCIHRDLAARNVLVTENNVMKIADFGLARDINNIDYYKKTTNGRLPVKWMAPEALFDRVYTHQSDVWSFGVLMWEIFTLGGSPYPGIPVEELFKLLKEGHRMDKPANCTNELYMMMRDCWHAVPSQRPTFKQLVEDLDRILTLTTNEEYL
Description: as §1

FGFR1, sequence (P11362 478-767): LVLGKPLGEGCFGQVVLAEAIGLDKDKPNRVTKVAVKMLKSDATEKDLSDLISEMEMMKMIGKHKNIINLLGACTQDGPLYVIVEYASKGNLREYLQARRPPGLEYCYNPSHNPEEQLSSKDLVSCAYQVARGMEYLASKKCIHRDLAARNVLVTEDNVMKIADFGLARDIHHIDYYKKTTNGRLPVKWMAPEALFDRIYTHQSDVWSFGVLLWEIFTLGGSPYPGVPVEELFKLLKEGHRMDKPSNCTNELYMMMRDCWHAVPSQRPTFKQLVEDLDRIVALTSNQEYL

SMILES	IC50 [1]	IC50 [2]
COc1cc(OC)c(F)c(-c2ccc3c(NC(=O)c4ccc(N5CCC(N(C)C)C5)cc4)n[nH]c3c2)c1F (stereo not shown) [Example 98, N-(6-(2,6-difluoro-3,5-dimethoxyphenyl)-1H-indazole-3-yl)-4-(3-(dimethylamino)pyrrolidine-1-yl)benzamide]	< 100 nM	< 100 nM
COc1cc(OC)c(Cl)c(-c2ccc3c(NC(=O)c4ccc(CCC(=O)N(C)C)cc4)n[nH]c3c2)c1Cl [Example 33, N-(6-(2,6-dichloro-3,5-dimethoxyphenyl)-1H-indazole-3-yl)-4-(3-(dimethylamino)-3-oxopropyl)benzamide]	< 100 nM	< 100 nM
COc1cc(OC)c(F)c(-c2ccc3c(NC(=O)c4cnc(N5CCN(C)CC5)nc4)n[nH]c3c2)c1F [Example 96, N-(6-(2,6-difluoro-3,5-dimethoxyphenyl)-1H-indazole-3-yl)-2-(4-methylpiperazine-1-yl) pyrimidine-5-formamide]	< 100 nM	< 100 nM
COc1cc(OC)c(Cl)c(-c2ccc3c(NC(=O)c4ccc(N5CCN(C(=O)C(C)(C)C)CC5)cc4)n[nH]c3c2)c1Cl [Example 30, N-(6-(2,6-dichloro-3,5-dimethoxyphenyl)-1H-indazole-3-yl)-4-(4-pivaloylpiperazine-1-yl)benzamide]	< 100 nM	< 100 nM
CCN1CCN(c2ccc(C(=O)Nc3n[nH]c4cc(-c5c(F)c(OC)cc(OC)c5F)ccc34)cc2)CC1 [Example 47, N-(6-(2,6-difluoro-3,5-dimethoxyphenyl)-1H-indazole-3-yl)-4-(4-ethylpiperazine-1-yl)benzamide]	< 100 nM	< 100 nM
COc1cc(OC)c(Cl)c(-c2ccc3c(NC(=O)c4ccc(N(C)C)cc4)n[nH]c3c2)c1Cl [Example 35, N-(6-(2,6-dichloro-3,5-dimethoxyphenyl)-1H-indazole-3-yl)-4-(dimethylamino)benzamide]	< 100 nM	< 100 nM
COc1cc(OC)c(Cl)c(-c2ccc3c(NC(=O)c4ccc(NCCCN(C)C)cc4)n[nH]c3c2)c1Cl [Example 26, N-(6-(2,6-dichloro-3,5-dimethoxyphenyl)-1H-indazole-3-yl)-4-((3(dimethylamino)propyl)amino)benzamide]	< 100 nM	< 100 nM
COc1cc(OC)cc(-c2ccc3c(NC(=O)c4ccc(N5C[C@@H](C)N[C@@H](C)C5)cc4)n[nH]c3c2)c1 [Example 29, N-(6-(3,5-dimethoxyphenyl)-1H-indazole-3-yl)-4-((3R, 5S)-3,5-dimethylpiperazine-1-yl)benzamide]	< 100 nM	< 100 nM
COc1cc(OC)c(F)c(-c2ccc3c(NC(=O)c4ccc(N5CCCCC5)cc4)n[nH]c3c2)c1F [Example 93, N-(6-(2,6-difluoro-3,5-dimethoxyphenyl)-1H-indazole-3-yl)-4-(piperidine-1-yl)benzamide]	< 100 nM	< 100 nM
COc1cc(OC)c(Cl)c(-c2ccc3c(NC(=O)c4ccc(N5CC(C)(C)NC(C)(C)C5)cc4)n[nH]c3n2)c1Cl [Example 99]	< 100 nM	< 100 nM
COc1cc(OC)c(Cl)c(-c2ccc3c(NC(=O)c4ccc(N5CCC(N(C)C)CC5)cc4)n[nH]c3c2)c1Cl [Example 37, N-(6-(2,6-dichloro-3,5-dimethoxyphenyl)-1H-indazole-3-yl)-4-(4-(dimethylamino)piperidine-1-yl)benzamide]	< 100 nM	< 100 nM
COc1cc(C(=O)Nc2n[nH]c3cc(-c4c(F)c(OC)cc(OC)c4F)ccc23)ccc1N1CCNC(C)(C)C1 [Example 97, N-(6-(2,6-difluoro-3,5-dimethoxyphenyl)-1H-indazole-3-yl)-4-(3,3-dimethylpiperazine-1-yl)-3-methoxybenzamide]	< 100 nM	< 100 nM
COc1cc(OC)c(Cl)c(-c2ccc3c(NC(=O)c4ccc(N5CCNC(C)(C)C5)c(F)c4)n[nH]c3n2)c1Cl [Example 91, N-(6-(2,6-dichloro-3,5-dimethoxyphenyl)-1H-pyrazolo [3,4-b]pyridin-3-yl)-4-(3,3-dimethylpiperazine-1-yl)-3-fluorobenzamide]	< 100 nM	< 100 nM
COc1cc(OC)c(F)c(-c2ccc3c(NC(=O)c4ccc(N5CCN(C)CC5)cc4)n[nH]c3c2)c1F [Example 45, N-(6-(2,6-difluoro-3,5-dimethoxyphenyl)-1H-indazole-3-yl)-4-(4-methylpiperazine-1-yl)benzamide]	< 100 nM	< 100 nM
COc1cc(OC)c(Cl)c(-c2ccc3c(NC(=O)c4ccc(N5C[C@@H](C)N[C@@H](C)C5)cc4)n[nH]c3n2)c1Cl [Example 64, N-(6-(2,6-dichloro-3,5-dimethoxyphenyl)-1H-pyrazolo [3,4-b]pyridin-3-yl)-4-((3S,5R)-3,5-dimethylpiperazine-1-yl)benzamide]	< 100 nM	< 100 nM
COc1cc(OC)c(Cl)c(-c2ccc3c(NC(=O)c4ccc(N5CCN(CCO)CC5)cc4)n[nH]c3c2)c1Cl [Example 27, N-(6-(2,6-dichloro-3,5-dimethoxyphenyl)-1H-indazole-3-yl)-4-(4-(2-hydroxyethyl)piperazinyl)benzamide]	< 100 nM	< 100 nM

Next, values leading:

IC50 [1]	IC50 [2]	SMILES
< 100 nM	< 100 nM	COc1cc(OC)c(F)c(-c2ccc3c(NC(=O)c4ccc(N5CCN(C)CC5)cc4)n[nH]c3n2)c1F [Example 48, N-(6-(2,6-difluoro-3,5-dimethoxyphenyl)-1H-pyrazolo [3,4-b]pyridine-3-yl)-4-(4-methylpiperazine-1-yl)benzamide]
< 100 nM	< 100 nM	COc1cc(OC)c(Cl)c(-c2ccc3c(NC(=O)c4ccc(N5CCN(C)CC5)nc4)n[nH]c3n2)c1Cl [Example 85, N-(6-(2,6-dichloro-3,5-dimethoxyphenyl)-1H-pyrazolo [3,4-b]pyridin-3-yl)-6-(4-methylpiperazine-1-yl)nicotinamide]
< 100 nM	< 100 nM	COCCN1CCN(c2ccc(C(=O)Nc3n[nH]c4nc(-c5c(Cl)c(OC)cc(OC)c5Cl)ccc34)cc2)CC1 [Example 67]
< 100 nM	< 100 nM	COc1cc(OC)c(Cl)c(-c2ccc3c(NC(=O)c4cnc(N5CCN(C)CC5)nc4)n[nH]c3n2)c1Cl [Example 92, N-(6-(2,6-dichloro-3,5-dimethoxyphenyl)-1H-pyrazolo [3,4-b]pyridin-3-yl)-2-(4-methylpiperazine-1-yl)pyrimidine-5-formamide]
< 100 nM	< 100 nM	COc1cc(OC)c(Cl)c(-c2ccc3c(NC(=O)c4ccc(N5CCNC(C)(C)C5)nc4)n[nH]c3n2)c1Cl [Example 87, N-(6-(2,6-dichloro-3,5-dimethoxyphenyl)-1H-pyrazolo [3,4-b]pyridin-3-yl)-6-(3,3-dimethylpiperazine-1-yl)nicotinamide]
< 100 nM	< 100 nM	COc1cc(OC)c(Cl)c(-c2ncc3c(NC(=O)c4ccc(N5CCN(C)CC5)cc4)n[nH]c3n2)c1Cl [Example 83]
< 100 nM	< 100 nM	COc1cc(OC)c(Cl)c(-c2ccc3c(NC(=O)c4ccc(N5CCN(C6CC6)CC5)nc4)n[nH]c3n2)c1Cl [Example 88, 6-(4-cyclopropylpiperazine-1-yl)-N-(6-(2,6-dichloro-3,5-dimethoxyphenyl)-1H-pyrazolo [3,4-b]pyridin-3-yl)nicotinamide]
